Data on four compounds can be found in patent US4994459A, “Aryloxypropane substituted piperazine derivatives with antiarrhythmic and antifibrillatory activity” (American Home Products Corporation, priority 1989, dated 1991).

The test system of one experiment is Purkinje fiber. In words: Cardiac electrophysiology in vitro, dog Purkinje fibers (action potential parameters). Particulars: 3 μM. The arrangement: unit not given here. Type of experiment: cell-based. How it is done: The compounds of this invention display a Class III antiarrhythmic profile. The Class III antiarrhythmic activity was established in vitro and in vivo in accordance with the following standard test procedures. Bundles of free-running Purkinje fibers with attached myocardium obtained from either ventricle of adult dog heart were pinned without stretching to the bottom of a 10 mL tissue chamber and continuously superfused with oxygenated Tyrode's solution at a flow rate of 5 mL/min. The composition of the Tyrode's solution was (mM): NaCl, 138; KCl 4; CaCl2, 2; MgCl2 0.5; NaHCO3, 24; dextrose, 5.5. The solution was aerated with 95% O2 -5% CO2 at 37° C. Bath temperature was maintained at 37±0.5° C. by circulating the pre-warmed superfusate through a thermostatically controlled water bath immediately prior to entering the tissue chamber. The preparations were stimulated through bipolar Teflon-coated silver wires, bared at the tips, placed on the endocardial surface of the attached myocardium, using a digital stimulator set to deliver constant current pulses 1.5-msec in duration at cycle lengths of 300 or 1000 msec. Stimulus strength was set at approximately 2×diastolic threshold, and adjusted as required throughout the experiment. All preparations were allowed to equilibrate in the tissue chamber for at least 1 hour before measurements were begun. Subsequently, a minimum of 60 minutes were allowed for equilibration with each drug-containing superfusate before post-drug measurements were made. Impalements were made at 6 to 10 sites throughout the preparation before and after drug exposure. Offset potentials were rechecked after each impalement. Glass microelectrodes filled with 3M KCl were coupled to high impedance negative capacitance electrometers and Ag/AgCl half-cells used as reference electrodes. The first derivative of the action potential upstroke (Vmax) was obtained using an analog differentiator circuit, coupled to a peak-hold circuit that retained the recorded value of Vmax for 30 to 70-msec. […] In addition, chart paper recordings of Vmax were obtained using the peak-hold device output. Fresh stock solutions of drug were prepared for each experiment. […] Action potential (AP) parameters measured included: diastolic take-off potential or activation voltage, (Vact); AP overshoot (Vos); AP duration measured as the time taken to repolarize to -20 mV (APD-20),-60 mV (APD-60), and -80 mV (APD-80); and maximal upstroke velocity (Vmax). An increase in APD-60 that occurred without a significant change in Vmax was taken, by definition, to indicate Class III antiarrhythmic activity "in vitro".

The test system of experiment [1] is Pigs (Durrock-Landrace cross). In words: Coronary occlusion-reperfusion in anesthetized pigs (20 min LAD occlusion, then reperfusion; survival). Particulars: 20 minutes before LAD occlusion. The format is in vivo, pig. The protocol:
Pigs (Durrock-Landrace cross) of either sex weighing 12 to 24 kg were anesthetized by administration of sodium pentobarbital. (35 mg/kg i.p. and supplemented with 5 mg/kg/hr. i.v.) and ventilated with room air following tracheotomy (minute volume: 200 mL/kg). The left femoral artery and vein were cannulated for the recording of blood pressure and for drug administration, respectively. Blood pressure and lead II EKG were recorded on a chart recorder.
The heart was exposed by a left thoracotomy performed at the fifth intercostal space. A silk ligature was placed beneath the left anterior descending coronary artery (LAD) about 1.5 cm from its origin and distal to the septal artery branch. The artery was occluded by lifting the vessel with the ligature and quickly placing a bull-dog clamp (3×12 mm padded jaws) over the artery. The clamp remained in place for a period of 20 minutes. Removal of the clamp produced a rapid reperfusion of the ischemic myocardium as evidenced by the return of normal color to the myocardium distal to the site of occlusion. Ectopic activity was monitored during occlusion and reperfusion by recording the lead II EKG at chart speeds of 5 to 25 mm/second. Animals were allowed to stabilize for at least 30 minutes prior to drug administration.
Pigs were randomized into groups receiving either vehicle or test drug at a given dose (1-5 mg/kg i.v.) 20 minutes before LAD occlusion. Animals surviving the period of occlusion were subsequently reperfused. No attempt was made to resuscitate animals experiencing ventricular fibrillation (VF) at any time following occlusion. In the absence of treatment, less than 30 percent of the animals survive the 20 minute period of occlusion, with a mean time to death onset of 8 to 12 minutes. Effective compounds either prevent death due to VF or prolong survival time.

A further experiment concerns Anesthetized Dog. In words: Cardiac electrophysiology in anesthetized dogs (refractory periods, conduction times, heart rate, blood pressure). The format is in vivo. Details: ACT (atrial conduction time), change / VCT (ventricular conduction time), change / BP, change: unit not given here. Particulars: 5 mg/kg i.v.; for ACT (atrial conduction time), change / AERP (refractory period of the right atrium), change / VCT (ventricular conduction time), change / VERP (refractory period of the right ventricle), change: BCL = 300, Example 1 n = 3; for BP, change / HR, change: Example 1 n = 3. How it is done: The compounds of this invention display a Class III antiarrhythmic profile. The Class III antiarrhythmic activity was established in vitro and in vivo in accordance with the following standard test procedures. Mongrel dogs of both sexes weighing 12 to 18 kg were anesthetized with sodium pentobarbital (35 mg/kg i.v. supplemented with 5 mg/kg/h) and artificially ventilated with room air (minute volume: 200 mL/kg). The heart was exposed by a right thoractomy performed at the fifth intercostal space and suspended in a pericardial cradle. Epicardial electrodes for stimulation and recording were sutured to the free wall of the lower right atrium and near the base of the right ventricle. Each electrode set contained a linear array of electrodes consisting of 1 bipolar stimulating electrode and 2 bipolar recording electrodes embedded in a rigid acrylic matrix. The stimulating bipole was 7 mm from the proximal recording electrode, which in turn was 10 mm from the distal recording bipole. Each electrode array was oriented to be parallel to the epicardial fiber axis. […] Conduction times and refractory periods were measured during pacing at a cycle length of 300 msec. The dog heart was paced by a stimulator driving a constant current isolation unit. […] Diastolic threshold was determined before and after each trial. Refractory periods of the right atrium and right ventricle ([…]) were determined by introducing an extrastimulus (S2) every 8 paced beats (S1). The extrastimulus was followed by a 4-second rest interval during which no pacing occurred. Both S1 and S2 were of identical intensity (twice threshold) and duration (2 msec). […] This S1 -S2 interval was considered to define effective refractory period. Atrial and ventricular (ACT and VCT) conduction times were measured as the time interval between the 2 electrograms recorded at the proximal and distal sites of the recording electrode array. The time of activation for electrograms with predominantly biphasic complexes was taken as the moment when the trace crossed the zero reference line, and for triphasic complexes, as the peak of the major deflection. Animals received the test compound by i.v. injection. Drugs were administered cumulatively at the following dose levels: 1, 2.5, 5, 7.5, 10 mg/kg. Each dose was administered over a 3 minute period. Electrophysiologic testing was performed 15 minutes following the end of dosing. Every 30 minutes the dog received the next incremental dose. […] An increase in ERP that occurred without a significant decrease of CT was taken, by definition to indicate "in vivo" Class III antiarrhythmic activity.

For experiment [2] the following is noted: dextro enantiomer; Taggart et al. 1985, McComb et al. 1985; cited from earlier work.

Turning to `Cl.Cl.O=[N+]([O-])c1ccc(OCC(O)CN2CCN(c3ccccn3)CC2)cc1` (racemic) [Example 1, α-[(4-Nitrophenoxy)methyl]-4-(2-pyridinyl)-1-piperazineethanol Dihydrochloride], in the experiment on Purkinje fiber (BCL = 300, Example 1 n = 2), the “APD-60 (AP duration, time to repolarize to -60 mV), change” value worked out at 15 and the “Vmax (maximal upstroke velocity), change” value is recorded as -19. Moreover, in the experiment with Purkinje fiber (BCL = 1000, Example 1 n = 3), the “APD-60 (AP duration, time to repolarize to -60 mV), change” value is listed as 29 ± 6 and the “Vmax (maximal upstroke velocity), change” value is on record as -8 ± 5. In experiment [1] (2.5 mg/Kg i.v.), the “Fraction of pigs surviving 20 min. occlusion” value is listed as 1/4 and the “Fraction of pigs surviving reperfusion” value was 0/4. In experiment [1] (5 mg/Kg i.v.), the “Fraction of pigs surviving 20 min. occlusion” value is 4/4 and the “Fraction of pigs surviving reperfusion” value is reported as 2/4. In the experiment on Anesthetized Dog, the “ACT (atrial conduction time), change” value is given as 16 ± 1; the “AERP (refractory period of the right atrium), change” value (“AERP … change” below) was found to be 69 ± 7; the “VCT (ventricular conduction time), change” value (shortened to “VCT … change”) is listed as -7 ± 9; the “VERP (refractory period of the right ventricle), change” value (“VERP … change” below) is reported as 25 ± 3. Further, in the experiment on Anesthetized Dog, the “BP, change” value is recorded as -33 ± 9 and the “HR, change” value was -33 ± 1.
`CS(=O)(=O)Nc1ccc(OCC(O)CN2CCN(c3ncccn3)CC2)cc1` (centres unmarked) [Example 4, N-[4-[2-Hydroxy-3-[4-(2-pyrimidinyl)-1-piperazinyl]-propoxy]phenyl]methanesulfonamide]: in the experiment on Purkinje fiber (BCL = 300, Example 1 n = 2), the “APD-60 (AP duration, time to repolarize to -60 mV), change” value is 16 and the “Vmax (maximal upstroke velocity), change” value is recorded as -12. In the experiment with Purkinje fiber (BCL = 1000, Example 1 n = 3), the “APD-60 (AP duration, time to repolarize to -60 mV), change” value is recorded as 33 and the “Vmax (maximal upstroke velocity), change” value is reported as -17. In the experiment with Anesthetized Dog, the “ACT (atrial conduction time), change” value was -4; the “AERP … change” value is on record as 24; the “VCT … change” value came to 0; the “VERP … change” value came out at 13. Besides, in the experiment on Anesthetized Dog, the “BP, change” value is recorded as -16 and the “HR, change” value was -14.
As to `CS(=O)(=O)Nc1ccc(OCC(O)CN2CCN(c3ccccn3)CC2)cc1` (centres unmarked) [Example 5, N-[4-[2-Hydroxy-3-[4-(2-pyridinyl)-1-piperazinyl]propoxy]phenyl]methanesulfonamide], in the experiment on Purkinje fiber (BCL = 300, Example 1 n = 2), the “APD-60 (AP duration, time to repolarize to -60 mV), change” value was found to be 30 and the “Vmax (maximal upstroke velocity), change” value is on record as 7. Also, in the experiment with Purkinje fiber (BCL = 1000, Example 1 n = 3), the “APD-60 (AP duration, time to repolarize to -60 mV), change” value was 50 and the “Vmax (maximal upstroke velocity), change” value stood at 14. Besides, in the experiment with Anesthetized Dog, the “ACT (atrial conduction time), change” value amounted to 6; the “AERP … change” value is recorded as 56; the “VCT … change” value stood at 3; the “VERP … change” value turned out to be 13. In the experiment on Anesthetized Dog, the “BP, change” value is given as -25 and the “HR, change” value is -15.
Take `CC(C)NCC(O)c1ccc(NS(C)(=O)=O)cc1` (centres unmarked) [Sotalol, 4-(2-isopropylamino-1-hydroxyethyl)-methane-sulfonamide]: the “selective Class III antiarrhythmic activity” value in experiment [2] is recorded as “selective Class III antiarrhythmic activity”.
